Assay results taken from patent US20120083522A1, “MODULATION OF INFLAMMATORY RESPONSES BY FACTOR XI” (Isis Pharmaceuitcals, inc., priority 2009, published 2012).
In the oligonucleotide strings, read from the 5' end, every base follows the letter of its sugar. An asterisk marks phosphorothioate; unmarked linkages are phosphodiester. Other units and linkages are bracketed, terminal groups are in braces. A string of capitals states the bases alone. e = 2'-O-(2-methoxyethyl) (MOE); [5mC] = 5-methylcytosine; d = 2'-deoxy (DNA)

Experiments:
Type in all cases: in vivo
[1] = test system: Factor XI protein; assay: Cynomolgus monkeys: plasma Factor XI protein ELISA (Example 29); conditions: escalating doses 5, 10, 25 mg/kg s.c.
Procedure: (§1) Groups, each consisting of two male and three female monkeys, were injected subcutaneously with ISIS 416838, ISIS 416850, ISIS 416858, ISIS 416864, or ISIS 417002 in escalating doses. Antisense oligonucleotide was administered to the monkeys at 5 mg/kg three times per a week for week 1; 5 mg/kg twice per week for weeks 2 and 3; 10 mg/kg three times per week for week 4; 10 mg/kg twice per week for weeks 5 and 6; 25 mg/kg three times per week for week 7; and 25 mg/kg twice per week for weeks 8, 9, 10, 11, and 12. One control group, consisting of two male and three female monkeys, was injected subcutaneously with PBS according to the same dosing regimen. An additional experimental group, consisting of two male and three female monkeys, was injected subcutaneously with ISIS 416850 in a chronic, lower dose regimen. Antisense oligonucleotide was administered to the monkeys at 5 mg/kg three times per week for week 1; 5 mg/kg twice per week for week 2 and 3; 10 mg/kg three times per week for week 4; and 10 mg/kg twice per week for weeks 5 to 12. Body weights were measured weekly. Blood samples were collected 14 days and 5 days before the start of treatment and subsequently once per week for Factor XI protein activity analysis in plasma and measurement of various hematologic factors. On day 85, the monkeys were euthanized by exsanguination while under deep anesthesia, and organs harvested for further analysis.
Plasma samples from all monkey groups taken on different days were analyzed by a sandwich-style ELISA assay (Affinity Biologicals Inc.) using an affinity-purified polyclonal anti-Factor XI antibody as the capture antibody and a peroxidase-conjugated polyclonal anti-Factor XI antibody as the detecting antibody. Monkey plasma was diluted 1:50 for the assay. Peroxidase activity was expressed by incubation with the substrate o-phenylenediamine. The color produced was quantified using a microplate reader at 490 nm and was considered to be proportional to the concentration of Factor XI in the samples.
The results are presented in Table 122, expressed as percentage reduction relative to that of the PBS control.

[2] = Cynomolgus monkeys: body and organ weights (Example 29); conditions: for Kidney weight / Liver weight / Spleen weight: after euthanasia; for Body weight: escalating doses 5, 10, 25 mg/kg s.c.
Procedure: as §1
Body weights were taken once weekly throughout the dosing regimen. […] Organ weights were taken after the animals were euthanized and livers, kidneys and spleens were harvested and weighed. […] The ISIS oligonucleotide, ISIS 416850, given with the chronic dose regimen is distinguished from the other oligonucleotides with an asterisk (*).

[3] = Cynomolgus monkeys: hematology assays (Example 29)
Procedure: as §1
The ISIS oligonucleotide, ISIS 416850, given with the chronic dose regimen is distinguished from the other oligonucleotides with an asterisk (*).

ISIS 416838: gapmer of Table 6 (antisense eG*e[5mC]*eA*eA*e[5mC]*d[5mC]*dG*dG*dG*dA*dT*dG*dA*dT*dG*eA*eG*eT*eG*e[5mC])
Inhibition of Factor XI protein relative to the PBS control ([1]; day 8): 3%
Inhibition of Factor XI protein relative to the PBS control ([1]; day 15): 4%
Inhibition of Factor XI protein relative to the PBS control ([1]; day 22): 5%
Inhibition of Factor XI protein relative to the PBS control ([1]; day 29): 8%
Inhibition of Factor XI protein relative to the PBS control ([1]; day 36): 11%
Inhibition of Factor XI protein relative to the PBS control ([1]; day 43): 5%
Inhibition of Factor XI protein relative to the PBS control ([1]; day 50): 8%
Inhibition of Factor XI protein relative to the PBS control ([1]; day 57): 10%
Inhibition of Factor XI protein relative to the PBS control ([1]; day 64): 11%
Inhibition of Factor XI protein relative to the PBS control ([1]; day 71): 12%
Inhibition of Factor XI protein relative to the PBS control ([1]; day 78): 10%
Inhibition of Factor XI protein relative to the PBS control ([1]; day 85): 10%
Inhibition of Factor XI protein relative to the PBS control ([1]; day −5 (before treatment)): 0%
Inhibition of Factor XI protein relative to the PBS control ([1]; day −14 (before treatment)): 0%
Kidney weight [2]: 12 g
Liver weight [2]: 63 g
Spleen weight [2]: 5 g
Body weight ([2]; day 1): 2720 g
Body weight ([2]; day 8): 2592 g
Body weight ([2]; day 15): 2642 g
Body weight ([2]; day 22): 2702 g
Body weight ([2]; day 29): 2689 g
Body weight ([2]; day 36): 2708 g
Body weight ([2]; day 43): 2700 g
Body weight ([2]; day 50): 2731 g
Body weight ([2]; day 57): 2737 g
Body weight ([2]; day 64): 2746 g
Body weight ([2]; day 71): 2869 g
Body weight ([2]; day 78): 2766 g
platelet count ([3]; day 8): 387000 µL⁻¹
platelet count ([3]; day 15): 387000 µL⁻¹
platelet count ([3]; day 22): 319000 µL⁻¹
platelet count ([3]; day 29): 337000 µL⁻¹
platelet count ([3]; day 36): 370000 µL⁻¹
platelet count ([3]; day 43): 365000 µL⁻¹
platelet count ([3]; day 50): 372000 µL⁻¹
platelet count ([3]; day 57): 371000 µL⁻¹
platelet count ([3]; day 64): 358000 µL⁻¹
platelet count ([3]; day 71): 365000 µL⁻¹
platelet count ([3]; day 78): 348000 µL⁻¹
platelet count ([3]; day 85): 344000 µL⁻¹
platelet count ([3]; day −5): 425000 µL⁻¹
platelet count ([3]; day −14): 377000 µL⁻¹

ISIS 416864: gapmer of Table 8 (antisense eG*eG*e[5mC]*eA*eG*d[5mC]*dG*dG*dA*d[5mC]*dG*dG*d[5mC]*dA*dT*eT*eG*eG*eT*eG)
Inhibition of Factor XI protein relative to the PBS control ([1]; day 8): 7%
Inhibition of Factor XI protein relative to the PBS control ([1]; day 15): 9%
Inhibition of Factor XI protein relative to the PBS control ([1]; day 22): 7%
Inhibition of Factor XI protein relative to the PBS control ([1]; day 29): 10%
Inhibition of Factor XI protein relative to the PBS control ([1]; day 36): 9%
Inhibition of Factor XI protein relative to the PBS control ([1]; day 43): 9%
Inhibition of Factor XI protein relative to the PBS control ([1]; day 50): 10%
Inhibition of Factor XI protein relative to the PBS control ([1]; day 57): 7%
Inhibition of Factor XI protein relative to the PBS control ([1]; day 64): 5%
Inhibition of Factor XI protein relative to the PBS control ([1]; day 71): 10%
Inhibition of Factor XI protein relative to the PBS control ([1]; day 78): 9%
Inhibition of Factor XI protein relative to the PBS control ([1]; day 85): 8%
Inhibition of Factor XI protein relative to the PBS control ([1]; day −5 (before treatment)): 5%
Inhibition of Factor XI protein relative to the PBS control ([1]; day −14 (before treatment)): 0%
Kidney weight [2]: 14 g
Liver weight [2]: 53 g
Spleen weight [2]: 5 g
Body weight ([2]; day 1): 2890 g
Body weight ([2]; day 8): 2784 g
Body weight ([2]; day 15): 2817 g
Body weight ([2]; day 22): 2857 g
Body weight ([2]; day 29): 2863 g
Body weight ([2]; day 36): 3327 g
Body weight ([2]; day 43): 3355 g
Body weight ([2]; day 50): 3408 g
Body weight ([2]; day 57): 3387 g
Body weight ([2]; day 64): 3384 g
Body weight ([2]; day 71): 2942 g
Body weight ([2]; day 78): 2822 g
platelet count ([3]; day 8): 438000 µL⁻¹
platelet count ([3]; day 15): 439000 µL⁻¹
platelet count ([3]; day 22): 364000 µL⁻¹
platelet count ([3]; day 29): 397000 µL⁻¹
platelet count ([3]; day 36): 428000 µL⁻¹
platelet count ([3]; day 43): 351000 µL⁻¹
platelet count ([3]; day 50): 419000 µL⁻¹
platelet count ([3]; day 57): 409000 µL⁻¹
platelet count ([3]; day 64): 383000 µL⁻¹
platelet count ([3]; day 71): 394000 µL⁻¹
platelet count ([3]; day 78): 366000 µL⁻¹
platelet count ([3]; day 85): 387000 µL⁻¹
platelet count ([3]; day −5): 456000 µL⁻¹
platelet count ([3]; day −14): 434000 µL⁻¹

ISIS 417002: gapmer of Table 8 (antisense eG*eG*dT*dG*d[5mC]*dA*d[5mC]*dA*dG*dT*dT*dT*d[5mC]*dT*dG*eG*e[5mC]*eA*eG*eG)
Inhibition of Factor XI protein relative to the PBS control ([1]; day 8): 0%
Inhibition of Factor XI protein relative to the PBS control ([1]; day 15): 4%
Inhibition of Factor XI protein relative to the PBS control ([1]; day 22): 2%
Inhibition of Factor XI protein relative to the PBS control ([1]; day 29): 8%
Inhibition of Factor XI protein relative to the PBS control ([1]; day 36): 8%
Inhibition of Factor XI protein relative to the PBS control ([1]; day 43): 9%
Inhibition of Factor XI protein relative to the PBS control ([1]; day 50): 13%
Inhibition of Factor XI protein relative to the PBS control ([1]; day 57): 24%
Inhibition of Factor XI protein relative to the PBS control ([1]; day 64): 26%
Inhibition of Factor XI protein relative to the PBS control ([1]; day 71): 30%
Inhibition of Factor XI protein relative to the PBS control ([1]; day 78): 22%
Inhibition of Factor XI protein relative to the PBS control ([1]; day 85): 23%
Inhibition of Factor XI protein relative to the PBS control ([1]; day −5 (before treatment)): 0%
Inhibition of Factor XI protein relative to the PBS control ([1]; day −14 (before treatment)): 0%
Kidney weight [2]: 15 g
Liver weight [2]: 51 g
Spleen weight [2]: 5 g
Body weight ([2]; day 1): 2640 g
Body weight ([2]; day 8): 2523 g
Body weight ([2]; day 15): 2571 g
Body weight ([2]; day 22): 2617 g
Body weight ([2]; day 29): 2622 g
Body weight ([2]; day 36): 2631 g
Body weight ([2]; day 43): 2630 g
Body weight ([2]; day 50): 2652 g
Body weight ([2]; day 57): 2654 g
Body weight ([2]; day 64): 2598 g
Body weight ([2]; day 71): 2727 g
Body weight ([2]; day 78): 2570 g
platelet count ([3]; day 8): 435000 µL⁻¹
platelet count ([3]; day 15): 410000 µL⁻¹
platelet count ([3]; day 22): 377000 µL⁻¹
platelet count ([3]; day 29): 410000 µL⁻¹
platelet count ([3]; day 36): 415000 µL⁻¹
platelet count ([3]; day 43): 393000 µL⁻¹
platelet count ([3]; day 50): 389000 µL⁻¹
platelet count ([3]; day 57): 403000 µL⁻¹
platelet count ([3]; day 64): 436000 µL⁻¹
platelet count ([3]; day 71): 490000 µL⁻¹
platelet count ([3]; day 78): 432000 µL⁻¹
platelet count ([3]; day 85): 418000 µL⁻¹
platelet count ([3]; day −5): 466000 µL⁻¹
platelet count ([3]; day −14): 442000 µL⁻¹
